We go through 7 compounds from US6825217B2, “Carbinols for the treatment of neuropathic dysfunction” (Endo Pharmaceuticals, Inc., priority 2001, dated 2004).

For data set [1] the following is noted: CCI rats, cited from earlier work.
For data set [2] the following is noted: sometimes fatally; U.S. Food and Drug Administration; cited from earlier work.
Data set [3] is described as follows: Mouse antiphenylquinone writhing (PQW) test. The class given is in vivo. To be noted: Mus musculus. How it is done:
(§1) The anti-phenylquinone writhing (PQW) test modified from the methods of Siegmund et al. (Proc. Soc. Exp. Biol. Med. 95: 729-731, 1957) and Blumberg et al. (Proc. Exp. Biol. Med. 118: 763-767, 1965) was used to assess the relief from the simulated symptoms of neuropathic pain in mice. Male CF1 mice (Charles River Breeding Laboratories, Wilmington, Mass.), fasted for 16-22 hours and weighing 18-23 g, were injected with randomized and coded doses of test compounds, then challenged with 1.25 mg/kg i.p. phenyl-p-benzoquinone (phenylquinone) 5 minutes prior to the specified observation time. The phenylquinone solution (0.1 mg/ml in 5% aqueous ethanol) was prepared daily and stored in foil-wrapped amber bottles to limit degradation. Mice were observed 10 minutes for the presence or absence of the characteristic abdominal constriction and stretching response beginning 30 minutes after injection of the test compound. Activity was calculated as the percentage of mice failing to respond to the phenylquinone challenge dose. […] Median effective doses (ED50's) and 95% confidence limits were determined numerically by the methods of Thompson (Bacteriological Rev. 11: 115-145, 1947), and Litchfield and Wilcoxon (J. Pharmacol. Exp. Ther. 96: 99-113, 1949).

A short description of data set [4]: Mouse Tail-Flick. Format: in vivo. The following applies: Mus musculus; read-out: Mouse Tail-Flick ED50 (unit inferred).
A short description of data set [5]: Rat Hot Plate. The class given is in vivo.
Data set [6] in a line: Rat PQW. Format: in vivo. To be noted: Rattus norvegicus. How it is done:
as §1

A short description of data set [7]: Chung model (tactile allodynia). The following applies: rat; two hours post injection; doses 200 mg/kg and 100 mg/kg. The class given is in vivo, rat. How it is done:
This model for neuropathic pain was performed on rats using the surgical procedure described by Kim and Chung (1992) to induce an allodynic state. Briefly, the left L-5 and L-6 spinal nerves were isolated adjacent to the vertebral column and ligated with 6-0 silk suture distal to the dorsal root ganglion under isoflurane anesthesia. This model allows for spinal cord structural reorganization and growth of low threshold mechnoreceptor fibers from the spinal cord with synaptic connections and rewiring of the dorsal horn. This leads to spontaneous firing of invading sympathetic nerves and upregulation of receptors and voltage-dependent channels; i.e. mimics the development of allodynia (nociceptive response to a previously neutral stimulus). The rats were allowed a minimum of 7-days postoperative recovery period before testing.
To assess tactile thresholds in the Chung model, rats were placed in a clear plastic, wire mesh-bottomed cage, divided into individual compartments. Animals were allowed to acclimate and then baseline thresholds were assessed prior to drug treatment. To assess the 50% mechanical threshold for paw withdrawal, von Frey hairs were applied to the plantar mid-hindpaw, avoiding the tori (footpads). The eight von Frey hairs used are designated by [log (10*force required to bend hair, mg)] and range from 0.4-15.1 grams (#'s 3.61-5.18). Each hair was pressed perpendicularly against the paw with sufficient force to cause slight bending, and held for approximately 6-8 seconds. A positive response was noted if the paw was sharply withdrawn. Flinching immediately upon removal of the hair was also considered a positive response. Absence of a response (“−”) was cause to present the next consecutive stronger stimulus; a positive response (“+”) was cause to present the next weaker stimulus. Stimuli were presented successively until either six data points were collected, or the maximum or minimum stimulus was reached. If a minimum stimulus was reached and positive responses still occurred, the threshold was assigned an arbitrary minimum value of 0.25 grams; if a maximum stimulus was presented and no response occurred, a maximum threshold value of 15 grams was assigned. If a change in response occurs, either “−” to “+” or “+” to “−”, causing a change in the direction of stimulus presentation from descending to ascending or vice-versa, four additional data points were collected subsequent to the change.

Data set [8] can be described thus: Formalin model. The following applies: rat, versus saline control. The class given is in vivo. An excerpt:
Formalin induces inflammatory stimulation of peripheral nerves that results in sensitization of CNS nociceptive transmission pathways. There are two phases of formalin-induced nociception: phase I—an acute nociceptive component; and phase II—a chronic nociceptive component characterized by hyperalgesia.
On the morning of formalin testing, a small metal band (0.5 g) was loosely placed around the right hind paw. The rat was placed in a cylindrical Plexiglas chamber for adaptation for a minimum of 30 minutes. Compound A, venlafaxine or a saline control was administered into the dorsal surface of the right hindpaw of the rat. The animal was then placed into the chamber of the automated formalin apparatus where movement of the formalin-injected paw was monitored and the number of paw flinches tallied by minute over the next sixty minutes. Upon completion of the test the animal was removed and euthanized.

Data set [9] can be described thus: Rat Tail-Flick. Format: in vivo.
For data set [10], the system named is GABA receptors. The following applies: cited from earlier work.
Data set [11] concerns subunit of a voltage-gated calcium channel. The following applies: cited from earlier work.
Setting [12] is: intraperitoneal, high doses of up to 600 mg/kg.
The mark [13] stands for this setting: intraperitoneal 10 to 75 mg/kg, at two and four hours.

Like-named read-outs stand apart in the source and are kept apart here.

`NC(=O)OCC(COC(N)=O)c1ccccc1` [Felbamate, felbamate]: in [1] (setting [12]), the heat hyperalgesia result is “completely abolished”, the hindpaw guarding result is listed as “completely abolished”, the mechanical allodynia result is “completely abolished” and the mechanical hyperalgesia result is “completely abolished”. Further, in [1] (intraperitoneal), the “responses in the control hindpaw” value is given as “unaffected”. The toxicity in humans entry in data set [2] was “liver failure and aplastic anemia”.

Take `COc1cccc(C2(O)CCCCC2CN(C)C)c1` (stereo not shown) [TRAMADOL, Tramadol, reference compound]: the ED50 (usually the dose that gives a 50% effect, or the effect in half of the subjects) in data set [3] was 7.8 mg/kg; in data set [4], 31.2 mg/kg; in data set [5] (Rattus norvegicus), 40 mg/kg.

Take `CC(O)C1(c2cccc(Cl)c2)CCCN(C)CC1` (stereo not shown): the melting point (usually the temperature, or range, at which the solid turns liquid) is 123 to 124 °C.

In the case of `COc1ccc(C(CN(C)C)C2(O)CCCCC2)cc1` (stereo not shown) [Venlafaxine, reference compound], the 50% effective dose (ED50) in data set [6] came out at 39.2 mg/kg. The “effects on tactile allodynia” value in data set [7] was “statistically significant effects”. For the same compound, the “Rat Hot Plate ED50” value in [5] (rat) was “Inactive”. In addition, the “formalin test, paw flinches, phase I” value in [8] (all administered doses (200/100/50 mg per kg)) is “statistically significant effects”. For the same compound, in data set [8] (all administered doses), the “formalin test, paw flinches, phase II” value is “statistically significant effects only during phases I and IIA”; the “formalin test, paw flinches, phase IIA” value is “statistically significant effects”. In addition, the “formalin test, paw flinches, Phase IIB” value in data set [8] was “No statistical significance”. In data set [9], the “Rat Tail-Flick” value was “Inactive”.

For `NCC1(CC(=O)O)CCCCC1` [gabapentin], the “responses on the control side” value in data set [1] is “no significant change”. In addition, in data set [1] (setting [13]), the heat hyperalgesia entry is listed as “suppressed” and the mechanical allodynia result is reported as “suppressed”. Besides, in data set [1] (intraperitoneal 10 to 75 mg/kg), the mechanical hyperalgesia entry is on record as “lacked effect”. Also, the “responses at 24 hours” value in [1] (intraperitoneal, 24 hours) was “abnormal responses had returned”. In addition, the “pattern of effects after intrathecal injection” value in [1] (intrathecal to the lumbar spinal cord, 37.5 to 150 mcg/kg) is given as “the pattern was similar”. Also, in [10], the “effect on GABA receptors” value is “no direct effect”. Moreover, the “binding to a subunit of a voltage-gated calcium channel” value in data set [11] is “binds with high affinity”.

The compound `CN1CCC(c2cccc(Cl)c2)(C(C)(C)O)C1` (stereo not shown) gave a melting point of 98 to 99 °C.

`CCN1CCC(c2cccc(Cl)c2)(C(C)O)CC1` (stereo not shown): the melting point is 89 to 94 °C.
